In BindingDB's records for patent US11896597 (Dizal (Jiangsu) Pharmaceutical, 2024):

Columns and labels:
[1] = biological target: Epidermal growth factor receptor [T790M,L858R] (Homo sapiens, UniProt P00533, L858R/T790M); assay: Potency Assessment EGFR (WT) and EGFR Mutants
Description: (§1) The next day, tested compounds at a series of concentrations were added into each individual well of the plates, and the plates were incubated for 4 h at 37 C. with 5% CO2. […] The assay is an electrochemiluminescent method for determining both phosphorylated and total EGFR of cells with an MSD SECTOR Imager and the ratio of p-EGFR/total EGFR can be generated by the machine. The Her2 (Y1248) phosphorylation level (activity) of cells in each well were measured with MSD Kit named Phospho-ErbB2 (Tyr1248) Assay Whole Cell Lysate Kit according to the manufacturer's instruction (MESO SCALE DISCOVERY, Cat #K151CLD-3). The assay is an electrochemiluminescent method (MESO SCALE DISCOVERY) for determining both phosphorylated and total Her2 of cells with an MSD SECTOR Imager and then the ratio of p-Her2/total Her2 can be generated by the machine.

[2] = biological target: Epidermal growth factor receptor (Homo sapiens, UniProt P00533); assay: Potency Assessment EGFR (WT) and EGFR Mutants
Epidermal growth factor receptor, sequence (P00533 whole entry): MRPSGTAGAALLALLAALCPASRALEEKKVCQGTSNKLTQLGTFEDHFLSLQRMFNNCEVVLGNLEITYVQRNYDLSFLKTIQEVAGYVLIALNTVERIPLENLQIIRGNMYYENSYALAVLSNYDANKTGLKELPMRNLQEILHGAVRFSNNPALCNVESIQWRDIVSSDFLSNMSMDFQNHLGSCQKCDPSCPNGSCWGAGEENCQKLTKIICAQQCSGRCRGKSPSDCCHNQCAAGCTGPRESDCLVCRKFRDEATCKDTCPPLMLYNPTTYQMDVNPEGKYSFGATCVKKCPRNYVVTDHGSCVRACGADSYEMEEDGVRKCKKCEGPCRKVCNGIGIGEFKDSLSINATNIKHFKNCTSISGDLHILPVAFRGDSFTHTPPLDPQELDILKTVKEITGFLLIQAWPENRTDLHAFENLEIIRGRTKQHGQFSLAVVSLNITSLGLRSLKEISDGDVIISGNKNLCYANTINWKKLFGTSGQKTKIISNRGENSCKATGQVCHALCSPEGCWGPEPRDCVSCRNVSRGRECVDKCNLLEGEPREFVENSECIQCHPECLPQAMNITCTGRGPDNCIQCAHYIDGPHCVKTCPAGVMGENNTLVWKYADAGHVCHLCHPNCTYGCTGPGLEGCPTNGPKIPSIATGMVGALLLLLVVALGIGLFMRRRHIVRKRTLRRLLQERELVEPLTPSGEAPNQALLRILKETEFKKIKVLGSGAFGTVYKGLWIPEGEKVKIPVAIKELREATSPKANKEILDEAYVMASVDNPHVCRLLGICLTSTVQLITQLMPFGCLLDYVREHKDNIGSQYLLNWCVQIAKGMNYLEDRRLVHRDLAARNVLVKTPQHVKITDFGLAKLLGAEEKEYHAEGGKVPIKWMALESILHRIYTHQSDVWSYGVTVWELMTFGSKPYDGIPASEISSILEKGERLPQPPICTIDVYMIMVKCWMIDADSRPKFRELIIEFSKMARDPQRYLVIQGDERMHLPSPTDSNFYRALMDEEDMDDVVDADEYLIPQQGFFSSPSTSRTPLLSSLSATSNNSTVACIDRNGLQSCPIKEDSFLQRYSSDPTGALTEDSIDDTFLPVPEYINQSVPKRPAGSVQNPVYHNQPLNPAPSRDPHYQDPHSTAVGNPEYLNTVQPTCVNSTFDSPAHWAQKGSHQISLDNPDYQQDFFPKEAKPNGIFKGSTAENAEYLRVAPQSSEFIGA
Description: as §1

Epidermal growth factor receptor [T790M,L858R], sequence (P00533 25-1210 T790M/L858R limits assumed): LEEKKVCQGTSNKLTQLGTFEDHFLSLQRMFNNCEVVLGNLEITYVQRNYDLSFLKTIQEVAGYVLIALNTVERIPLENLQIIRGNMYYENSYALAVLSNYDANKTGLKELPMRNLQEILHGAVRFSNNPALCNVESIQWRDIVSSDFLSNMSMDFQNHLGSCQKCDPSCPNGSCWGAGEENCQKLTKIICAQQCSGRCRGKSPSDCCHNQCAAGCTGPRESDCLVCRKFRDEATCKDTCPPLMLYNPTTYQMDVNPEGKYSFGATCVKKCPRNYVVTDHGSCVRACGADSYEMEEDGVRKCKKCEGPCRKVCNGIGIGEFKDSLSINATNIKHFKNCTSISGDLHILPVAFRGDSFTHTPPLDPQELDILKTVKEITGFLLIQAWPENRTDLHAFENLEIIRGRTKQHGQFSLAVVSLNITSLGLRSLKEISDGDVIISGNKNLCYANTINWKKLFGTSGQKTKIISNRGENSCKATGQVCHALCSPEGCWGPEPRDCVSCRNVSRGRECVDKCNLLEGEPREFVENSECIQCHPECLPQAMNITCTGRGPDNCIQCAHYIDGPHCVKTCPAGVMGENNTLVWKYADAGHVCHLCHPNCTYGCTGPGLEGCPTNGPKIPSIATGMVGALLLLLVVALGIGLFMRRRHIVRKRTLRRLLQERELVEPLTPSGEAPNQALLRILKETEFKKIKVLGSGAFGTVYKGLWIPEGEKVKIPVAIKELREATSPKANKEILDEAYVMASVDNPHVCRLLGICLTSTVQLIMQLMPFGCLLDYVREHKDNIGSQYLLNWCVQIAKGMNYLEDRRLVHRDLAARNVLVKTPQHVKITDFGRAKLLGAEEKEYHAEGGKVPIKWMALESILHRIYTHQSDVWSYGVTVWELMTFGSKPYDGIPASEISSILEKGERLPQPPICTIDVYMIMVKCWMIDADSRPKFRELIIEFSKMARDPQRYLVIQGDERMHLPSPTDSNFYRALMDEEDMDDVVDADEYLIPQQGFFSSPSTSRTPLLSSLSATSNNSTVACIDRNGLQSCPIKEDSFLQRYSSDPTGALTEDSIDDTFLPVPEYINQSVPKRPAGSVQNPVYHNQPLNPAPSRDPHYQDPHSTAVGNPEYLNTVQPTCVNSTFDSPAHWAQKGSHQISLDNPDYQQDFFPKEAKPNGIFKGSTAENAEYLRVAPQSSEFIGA

Compound: C=CC(=O)Nc1cc(Nc2ncnc(Nc3cnc(C)cc3C(C)(C)O)n2)c(OC)cc1N(C)CCN(C)C [US11896597, Compound 6]
- IC50 [1]: 8.4 nM
- IC50 [2]: 103 nM

Compound: C=CC(=O)Nc1cc(Nc2ncnc(Nc3ccc(C)nc3C(C)(C)O)n2)c(OC)cc1N(C)CCN(C)C [US11896597, Compound 7]
- IC50 [1]: 1.7 nM
- IC50 [2]: 88.1 nM

Compound: C=CC(=O)Nc1cc(Nc2ncnc(Nc3ccccc3C3(O)COC3)n2)c(OC)cc1N(C)CCN(C)C [US11896597, Compound 10]
- IC50 [1]: 2.6 nM
- IC50 [2]: 62.6 nM

Compound: C=CC(=O)Nc1cc(Nc2ncnc(Nc3ccc(C(F)(F)F)cc3C(C)(C)O)n2)c(OC)cc1N(C)CCN(C)C [US11896597, Compound 13]
- IC50 [1]: 1.1 nM
- IC50 [2]: 20.6 nM

Compound: C=CC(=O)Nc1cc(Nc2ncnc(Nc3cc(F)c(F)cc3C(C)(C)O)n2)c(OC)cc1N(C)CCN1CCCCC1 [US11896597, Compound 24]
- IC50 [1]: 1 nM
- IC50 [2]: 104 nM

Compound: C=CC(=O)Nc1cc(Nc2nccc(Nc3cc(Cl)c(F)cc3C(C)(C)O)n2)c(OC)cc1N(C)C[C@H]1C[C@H](C)CN1C [US11896597, Compound 90]
- IC50 [1]: 1.4 nM
- IC50 [2]: 357 nM
